11 compounds from PubChem BioAssay (NCI) can be followed below.

Each structure is given as a SMILES string.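 Test compounds were applied to cells in 96-well plates for 48 hours at 5 doses. GI50 marks 50% less growth. TGI marks complete inhibition of growth.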 Where only a bound is given, the exact number is not on record here.

Holding throughout (experiment): inhibition of tumour cell growth, NCI panel, 48 h
Test [1] concerns COLO 205 colon.
In test [2] the test system is HOP-92 NSCLC.
Test [3] has as its system SK-OV-3 ovarian.
Test [4] concerns SW-620 colon.
Test [5] relates to T-47D breast.
Test [6] deals with TK-10 renal.
For test [7], the system named is U251 CNS.
The subject of test [8] is UACC-257 melanoma.
Test [9] concerns ACHN renal.
The subject of test [10] is MALME-3M melanoma.

As for `Oc1ccccc1-c1nn(CNc2ccc(Cl)cc2)c(=S)o1`, the GI50 is 7.01 µM in [1]; 88.8 µM in test [2]; greater than 100 µM in [3]; 22.4 µM in test [4]; 57 µM in test [5]; 1.53 µM in [6]. In addition, the GI50 in test [7] was 31.9 µM; in [8] it was 20.6 µM. In addition, the TGI in test [1], in test [2], in [3], in [4], in test [5] and in test [6] was greater than 100 µM in each case. The TGI in test [7] is greater than 100 µM; in [8] it was 47.9 µM.

Regarding `COc1ccc(C(=O)C2CCC(C(=O)O)C2)cc1` (configuration not stated), the TGI in test [9], in test [1], in test [2], in [10], in test [3] and in test [4] was greater than 100 µM throughout. Moreover, the TGI in test [6], in test [7] and in test [8] was greater than 100 µM in each case.

As to `COc1ccc(NC(=O)Oc2ccc3c(C)cc(=O)oc3c2)c(OC)c1` (tested in a mixture with another compound), the TGI in [9], in test [1], in test [10], in test [3], in test [4] and in test [5] was greater than 100 µM throughout. For the same compound, the TGI in test [6] and in test [7] was greater than 100 µM in each case.

For `CSc1cc([C@@H]2C[C@H]2c2ccc(Cl)cc2)on1`, the GI50 was 13.9 µM in test [9]; 23.9 µM in test [1]; 7.97 µM in [2]; 50.6 µM in [3]; 20.7 µM in test [4]; 22.2 µM in test [5]. In addition, the GI50 was 12.5 µM in test [6], 9.24 µM in [7] and 15.8 µM in test [8]. Besides, the TGI is greater than 100 µM in [9]; greater than 100 µM in test [1]; 27.3 µM in test [2]; greater than 100 µM in [3]; 59.8 µM in [4]; greater than 100 µM in [5]. Also, the TGI in test [6] turned out to be 31.5 µM; in test [7], 32.3 µM; in test [8], 35.6 µM.

As for `COC(=O)CCC(=O)Nc1ccc(Cl)cc1C`, the TGI in [9], in test [1], in test [2], in [10], in test [3] and in [4] was greater than 100 µM throughout. Also, the TGI in test [6], in test [7] and in test [8] was greater than 100 µM each time.

For `CCC[CH2][Sn](=[O])[CH2]CCC`, the GI50 in test [9] was greater than 50 µM; in [1], greater than 50 µM; in [2] it was 31.9 µM; in test [10], greater than 50 µM; in test [3] it was greater than 50 µM; in test [4], greater than 50 µM. Moreover, the GI50 in [6], in [7] and in [8] was greater than 50 µM each time. Further, the TGI in [9], in [1], in test [2], in test [10], in test [3] and in [4] was greater than 50 µM throughout. Also, the TGI in [6], in test [7] and in test [8] was greater than 50 µM each time.

`CCOC(=O)C(=Cc1ccc(C#N)cc1)C(=O)OCC`: the GI50 is 1.78 µM in test [9]; 1.87 µM in test [1]; 1.63 µM in test [2]; 9.86 µM in test [3]; 2.1 µM in test [4]; 2.15 µM in [5]. For the same compound, the GI50 in [6] is 2.28 µM; in test [7], 2.15 µM; in test [8], 2.41 µM. In addition, the TGI in [9] is 3.46 µM; in test [1], 3.83 µM; in test [2], 4.26 µM; in test [3], 21.5 µM; in test [4], 4.72 µM; in test [5] it was 7.96 µM. Further, the TGI was found to be 7.3 µM in test [6], 4.89 µM in test [7] and 5.63 µM in test [8].

As to `Cc1cc(OCc2nnc3n2S(=O)(=O)c2ccccc2N3C)ccc1Cl`, the TGI in test [9] was 53 µM; in test [1], greater than 100 µM; in test [2], 36.4 µM; in [3], 37.4 µM; in test [4], greater than 100 µM; in [5], greater than 100 µM. Moreover, the results for the TGI in test [6], in test [7] and in test [8] were greater than 100 µM, 43.6 µM and greater than 100 µM, respectively.

With `CCCCCCCCCCCCSC(=S)c1c(C)[nH]n(-c2ccccc2)c1=O`, the TGI in test [9] is greater than 50 µM; in test [1] it was greater than 50 µM; in test [2], greater than 50 µM; in [10], 39.8 µM; in test [3], greater than 50 µM; in test [4], greater than 50 µM. Further, the TGI is greater than 50 µM in test [6], greater than 50 µM in test [7] and 29.5 µM in test [8].

Turning to `CC(=O)OCc1c(O)c2c([nH]c1=O)CCc1ccccc1-2`, the TGI in test [9] was greater than 350 µM; in test [1], 112 µM; in [2], 182 µM; in test [10] it was greater than 35 µM; in [3], greater than 350 µM; in test [4], 111 µM. Besides, the TGI in [6] is 186 µM; in test [7], greater than 350 µM; in test [8] it was 203 µM.

Consider `CCOC(=O)C12CCCC1(O)N(NC(=O)OC)C(C)=C2C(=O)OC` (configuration not stated), for which the TGI in test [9], in test [1], in test [2], in test [10], in test [3] and in test [4] was greater than 100 µM each time. The TGI in [6], in [7] and in [8] was greater than 100 µM in each case.
